This is an account of results in patent US10107816B2, “G-protein coupled receptor-associated diagnostics and therapeutics for B-cell chronic lymphocytic leukemia” (THE REGENTS OF THE UNIVERSITY OF CALIFORNIA, priority 2013, dated 2018).

Entries after “also recorded” stand apart in the source; their conditions may differ. Where no end group is shown, it is not given here.

The subject of test [1] is CLL cells. Description: Assay of cellular apoptosis (annexin V/PI flow cytometry) in CLL cells. The conditions noted are these: for apoptosis in combination with IR284: with PDE inhibitor IR284 (100 nM), compared to IR284 alone. Type of test: cell-based, human. The procedure: (§1) FIG. 7 illustrates apoptosis of CLL cells (data from Aggressive and Indolent CLL cells), left panel, and normal B-cells (n=3), right panel, in response to 1 μM VIP+100 nM IR284. Statistical significance, determined by Student's t-test, is shown (*=P<0.05) compared to cells treated only with 100 nM IR284.
(§2) Cycle thresholds (lower value denotes higher expression) normalized to 28S. Statistical significance was determined by Student's t-test and is depicted by (***) for P<0.001 compared to normal. […] Statistical significance was determined by paired t test with (*) P<0.05 compared to IR284 alone.
(§3) Flow cytometry was used to detect annexin V/fluorescein isothiocyanate (FITC) and propidium iodide (PI) staining to determine the apoptotic population of treated cells. CLL-cells or normal PBMC (1,000,000/ml) in […]+10% FBS were incubated for 48 hr in standard culture conditions with or without drugs and then assayed for annexinV/PI staining per manufacturer's protocol using a FACScan (Becton Dickinson Biosciences, San Jose, Calif.) flow cytometer.

For test [2], the system named is NK.tert bone marrow-derived stromal cells. The experiment in a line: Stromal cell proliferation ([3H] thymidine) with conditioned media from indolent CLL cultures. Conditions: conditioned media from indolent CLL cells incubated 24 hr with IR284 (100 nM) or VIP. The format is cell-based, human. How it is done: Mononuclear cells derived from the blood of Indolent CLL patients were grown in tissue culture media (RPMI 1640+10% Heat-Inactivated Fetal Bovine Serum) and incubated for 24 hr in the absence of any drug (“untreated CLL”), in the presence of the phosphodiesterase 4/7 inhibitor IR284 (100 nM) or the VIPR agonist VIP […]. In the 24 hr incubation period products excreted from the cells in response to the treatments accumulate in the media, which is called “conditioned media” (CM). CM was harvested from the cell cultures by subjecting them to centrifugation at 233 rcf for 10 minutes at 4° C. to pellet cells and debris. The liquid portion was removed and used as CM. To assess the impact of CM from the indolent CLL cultures upon the proliferation of bone marrow-derived stromal cells (which make up the supportive microenvironment of CLL in vivo), CM was added to NK.tert bone marrow-derived stromal cells along with [3H] thymidine to assess DNA synthesis/cell proliferation

In test [3] the test system is normal B-cells. The experiment in a line: Assay of cellular apoptosis (annexin V/PI flow cytometry) in normal B-cells. The format is cell-based, human. Conditions: normal B-cells (n=3). How it is done:
as §1, §3
On the technique in general: Flow cytometry measures light scatter and fluorescence of single cells or particles in a stream.

The subject of test [4] is CLL cells. Description: cAMP accumulation assay (cAMP radioimmunoassay). Conditions: aggressive CLL cells (n=8); 1 μM VIP + 100 nM IR284, relative to 100 nM IR284 alone; P<0.05. The format is cell-based, human. How it is done: The results are expressed relative to cAMP levels in cells treated only with 100 nM IR284, a PDE4/7 inhibitor. Statistical significance was determined by paired t test and is shown (*=P<0.05) compared to cells treated only with IR284.
as §2
One million CLL-cells or normal PBMC/ml in […] buffer+10% FBS were plated in a 12-well cell culture plate and incubated for 20 min at 37° C. in air plus 5% CO2 with a dual PDE4/7 inhibitor (IR284). VIP or ACTH were then added to the 12-well culture plate and incubated for 10 min at 37° C. in air plus 5% CO2. The cells were then centrifuged at 1200 rpm for 5 min at 4° C. The media was aspirated and 50 μl of 7.5% trichloroacetic acid (TCA) was added to each cell pellet to release cAMP from the cells. The TCA-suspended sample was diluted in 1 ml 10 mM sodium acetate and acetylated with 20 ul triethylamine and 10 ul acetic anhydride. The competitive binding assay consists of 50 μl of diluted, acetylated sample, 25 μl AMP antibody and 25 μl ^125I-labeled cAMP (Perkin Elmer). […]
A general note: Changes in cAMP serve as a functional read-out for many G protein-coupled receptors.

Test [5] concerns male germ cell. The conditions noted are these: in vivo; cited from earlier work.
Test [6] addresses T1, LGR8 (Homo sapiens, UniProt Q8WXD0).
T1 construct: expressed in transfected cells; host or cells: 293T cells
The conditions noted are these: recombinant LGR8 in 293T cells; cited from earlier work.

In test [7] the test system is arrested oocytes in preovulatory follicles. Conditions: in vitro and in vivo; cited from earlier work.
Test [8] has as its system LGR8. The conditions noted are these: germ cells; via inhibitory G protein Gi; cited from earlier work.
In test [9] the test system is CLL cells. Description: Spontaneous apoptosis of CLL cells (Annexin V surface staining). The format is cell-based, human. The source says:
FIG. 12 illustrates that the peptide hormone insulin-like peptide 3 (INSL3) protects CLL cells from spontaneous apoptosis.

[10] abbreviates: indolent CLL cells, with or without VIP or ACTH, with a phosphodiesterase inhibitor.

T1 sequence (Q8WXD0 whole entry): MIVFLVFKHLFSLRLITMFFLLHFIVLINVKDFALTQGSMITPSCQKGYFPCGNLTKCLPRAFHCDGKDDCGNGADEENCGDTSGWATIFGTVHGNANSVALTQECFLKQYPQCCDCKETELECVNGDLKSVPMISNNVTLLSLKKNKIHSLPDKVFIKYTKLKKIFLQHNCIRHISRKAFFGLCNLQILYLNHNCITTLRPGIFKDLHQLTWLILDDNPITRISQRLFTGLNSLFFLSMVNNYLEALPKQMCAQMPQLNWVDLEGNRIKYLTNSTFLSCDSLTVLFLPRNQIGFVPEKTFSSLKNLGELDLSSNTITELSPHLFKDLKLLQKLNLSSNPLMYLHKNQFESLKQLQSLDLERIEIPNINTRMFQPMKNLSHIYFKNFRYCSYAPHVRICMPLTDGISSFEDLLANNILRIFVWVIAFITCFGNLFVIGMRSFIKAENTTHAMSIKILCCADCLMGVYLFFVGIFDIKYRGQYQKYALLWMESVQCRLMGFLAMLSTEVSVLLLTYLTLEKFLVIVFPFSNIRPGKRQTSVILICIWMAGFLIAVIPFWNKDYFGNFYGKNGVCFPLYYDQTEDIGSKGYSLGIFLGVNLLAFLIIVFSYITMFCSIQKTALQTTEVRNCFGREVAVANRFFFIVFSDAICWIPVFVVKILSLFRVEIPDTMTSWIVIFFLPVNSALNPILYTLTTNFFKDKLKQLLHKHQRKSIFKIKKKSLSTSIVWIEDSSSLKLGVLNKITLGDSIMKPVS

Turning to “ACTH: a melanocortin 2 receptor [MC2R] agonist, purchased from GenWay (SYSMEHFRWGKPVGKKRRPVKVYPNGAEDESAEAFPLEF; Corticotropin; UniProt P01189 138-176, looked up)”, the apoptosis entry in [1] (aggressive CLL cells, 48 hr) was “promote apoptosis”; in test [1] (setting [10]), “not indolent CLL”. Also, in [1] (aggressive CLL cells), the “apoptosis in combination with IR284” value is recorded as “increase apoptosis”.
For `COc1ccc(C2=NN(C3CCN(C(=O)N4CCOCC4)CC3)C(=O)C3CC=CCC23)cc1Cl` (stereo not shown) [IR284, (4-(3-chloro-4-methoxyphenyl)-2-(1-morpholine-4-carbonyl)piperadin-4-yl)-4a, 5,8,8a-tetrahydrophthalazin-1(2H)-one], the “proliferation of stromal cells (DNA synthesis)” value in [2] is “suppressed proliferation”.
With “VIP: vasoactive intestinal peptide receptor agonist, purchased from Tocris Bioscience (HSDAVFTDNYTRLRKQMAVKKYLNSILN; ends and bridges not checked; UniProt P01282 125-152, looked up)”, the apoptosis result in test [3] is on record as “does not promote apoptosis”; in [1] (CLL cells, P<0.05, n=3) it was “induced apoptosis”; in [1] (aggressive CLL cells, 48 hr), “increases apoptosis; also recorded: promote apoptosis”; in test [1] (setting [10]) it was “not indolent CLL”. In addition, the “apoptosis in combination with IR284” value in [1] (aggressive CLL cells) was “significantly enhanced; also recorded: increase apoptosis”. In addition, the cAMP accumulation result in [4] is reported as “significantly enhanced”. The “proliferation of stromal cells (DNA synthesis)” value in test [2] is listed as “suppressed proliferation”.

B1: INSL3: peptide hormone insulin-like peptide 3, LGR8 agonist (peptide, UniProt P51460 21-55; P51460 106-131, looked up)
Insulin-like 3 B chain: LGPAPTPEMREKLCGHHFVRALVRVCGGPRWSTEA
Insulin-like 3 A chain: AAATNPARYCCLSGCTQQDLLTLCPY
As for B1, the “male germ cell apoptosis” value in test [5] is “suppresses male germ cell apoptosis”. The “adenylyl cyclase activation / intracellular cAMP” value in [6] is “increases accumulation of intracellular cAMP”. The “meiotic progression of arrested oocytes” value in test [7] is “initiates meiotic progression”. For the same molecule, in [8], the cAMP production entry is reported as “decreases in cAMP production”. Besides, the protection from apoptosis result in test [9] is “protects CLL cells from programmed cell death”.
